# In patent US20240132484A1, “BROAD SPECTRUM ANTIVIRAL COMPOUNDS TARGETING THE SKI COMPLEX” (priority 2020, published 2024):
# Where “and” joins values, the source holds several entries; their conditions need not be identical. Equal entries are not always repeated. Where two headings read alike, the source gives them in different places.
# Key:
# cells (nuclei count) = details: for Relative cell count to DMSO controls, Average 1 μM / Relative cell count to DMSO controls, Average 5 μM / Relative cell count to DMSO controls, Average 10 μM / Relative cell count to DMSO controls, Average 25 μM / Relative cell count to DMSO controls, Average 50 μM: toxicity data, 100=DMSO control; for Relative cell count to DMSO controls, Average (for correlation analysis): average value over the 5 tested concentrations (1 to 50 uM)
# SARS2 = format: cell-based, SARS-CoV-2; details: for Percentage Infection Relative to Appropriate DMSO Control with Avg Background Subtraction: single well; for Percentage Inhibition Average 1 μM / Screening data (Relative infection to DMSO controls) Average 1 μM: SARS2, 1 μM; for Screening data (Relative infection to DMSO controls) Average 1 μM / Screening data (Relative infection to DMSO controls) Average 5 μM / Screening data (Relative infection to DMSO controls) Average 10 μM / Screening data (Relative infection to DMSO controls) Average 25 μM / Screening data (Relative infection to DMSO controls) Average 50 μM / Average (relative infection to DMSO over the 5 tested concentrations): 100=DMSO control; for Percentage Inhibition Average 5 μM / Screening data (Relative infection to DMSO controls) Average 5 μM: SARS2, 5 μM; for Percentage Inhibition Average 10 μM / Screening data (Relative infection to DMSO controls) Average 10 μM: SARS2, 10 μM; for Percentage Inhibition Average 25 μM / Screening data (Relative infection to DMSO controls) Average 25 μM: SARS2, 25 μM; for Percentage Inhibition Average 50 μM / Screening data (Relative infection to DMSO controls) Average 50 μM: SARS2, 50 μM; for Average (relative infection to DMSO over the 5 tested concentrations): SARS2, average over 1 to 50 uM
compound,measurement,setting,value
CCN(CC)CCN(Cc1ccc(C)o1)Cc1cccs1 [SILCS24],"Relative cell count to DMSO controls, Average 1 μM",cells (nuclei count),133.02
same,"Relative cell count to DMSO controls, Average 5 μM",cells (nuclei count),124
same,"Relative cell count to DMSO controls, Average 10 μM",cells (nuclei count),120.3
same,"Relative cell count to DMSO controls, Average 25 μM",cells (nuclei count),96.21
same,"Relative cell count to DMSO controls, Average 50 μM",cells (nuclei count),76.48
same,"Toxicity Data, Average, Mean","cells (nuclei count); Average of Exp 1-3, n 9, 1 uM",133.02%
same,"Toxicity Data, Average, Mean","cells (nuclei count); Average of Exp 1-3, n 9, 5 uM",124.00%
same,"Toxicity Data, Average, Mean","cells (nuclei count); Average of Exp 1-3, n 9, 10 uM",120.30%
same,"Toxicity Data, Average, Mean","cells (nuclei count); Average of Exp 1-3, n 9, 25 uM",96.21%
same,"Toxicity Data, Average, Mean","cells (nuclei count); Average of Exp 1-3, n 9, 50 uM",76.48%
same,"Relative cell count to DMSO controls, Average (for correlation analysis)",cells (nuclei count),110.00
same,"Infection Data, Average, Mean","SARS2; Average of Exp 1-3, n 9, 1 uM",68.53%
same,"Infection Data, Average, Mean","SARS2; Average of Exp 1-3, n 9, 5 uM",71.54%
same,"Infection Data, Average, Mean","SARS2; Average of Exp 1-3, n 9, 10 uM",70.96%
same,"Infection Data, Average, Mean","SARS2; Average of Exp 1-3, n 9, 25 uM",35.04%
same,"Infection Data, Average, Mean","SARS2; Average of Exp 1-3, n 9, 50 uM",19.26%
same,Percentage Infection Relative to Appropriate DMSO Control with Avg Background Subtraction,"SARS2; Exp 1 (SMW475), 1 uM",124.65% and 102.70% and 66.42%
same,Percentage Infection Relative to Appropriate DMSO Control with Avg Background Subtraction,"SARS2; Exp 1 (SMW475), 5 uM",90.16% and 99.17% and 50.26%
same,Percentage Infection Relative to Appropriate DMSO Control with Avg Background Subtraction,"SARS2; Exp 1 (SMW475), 10 uM",93.85% and 91.06% and 50.31%
same,Percentage Infection Relative to Appropriate DMSO Control with Avg Background Subtraction,"SARS2; Exp 1 (SMW475), 50 uM",20.92% and 16.99% and 16.36%
same,Percentage Infection Relative to Appropriate DMSO Control with Avg Background Subtraction,"SARS2; Exp 2 (SMW477), 1 uM",88.56% and 86.90% and 93.54%
same,Percentage Infection Relative to Appropriate DMSO Control with Avg Background Subtraction,"SARS2; Exp 2 (SMW477), 5 uM",78.38% and 98.62% and 72.17%
same,Percentage Infection Relative to Appropriate DMSO Control with Avg Background Subtraction,"SARS2; Exp 2 (SMW477), 10 uM",54.07% and 57.64% and 38.68%
same,Percentage Infection Relative to Appropriate DMSO Control with Avg Background Subtraction,"SARS2; Exp 2 (SMW477), 50 uM",18.59% and 11.16% and 9.24%
same,Percentage Infection Relative to Appropriate DMSO Control with Avg Background Subtraction,"SARS2; Exp 3 (SMW478), 10 uM",97.16% and 81.93% and 73.95%
same,Percentage Inhibition Average 1 μM,SARS2,31.47%
same,Screening data (Relative infection to DMSO controls) Average 1 μM,SARS2,68.53
same,Percentage Inhibition Average 5 μM,SARS2,28.46%
same,Screening data (Relative infection to DMSO controls) Average 5 μM,SARS2,71.54
same,Percentage Inhibition Average 10 μM,SARS2,29.04%
same,Screening data (Relative infection to DMSO controls) Average 10 μM,SARS2,70.96
same,Percentage Inhibition Average 25 μM,SARS2,64.96%
same,Screening data (Relative infection to DMSO controls) Average 25 μM,SARS2,35.04
same,Percentage Inhibition Average 50 μM,SARS2,80.74%
same,Screening data (Relative infection to DMSO controls) Average 50 μM,SARS2,19.26
same,Average (relative infection to DMSO over the 5 tested concentrations),SARS2,53.07
Cc1cc(CN(CCN(C)C)Cc2ccsc2)oc1C [SILCS27],"Relative cell count to DMSO controls, Average 1 μM",cells (nuclei count),109.07
same,"Relative cell count to DMSO controls, Average 5 μM",cells (nuclei count),120.66
same,"Relative cell count to DMSO controls, Average 10 μM",cells (nuclei count),120.18
same,"Relative cell count to DMSO controls, Average 25 μM",cells (nuclei count),103.23
same,"Relative cell count to DMSO controls, Average 50 μM",cells (nuclei count),86.33
same,"Toxicity Data, Average, Mean","cells (nuclei count); Average of Exp 1-3, n 9, 1 uM",109.07%
same,"Toxicity Data, Average, Mean","cells (nuclei count); Average of Exp 1-3, n 9, 5 uM",120.66%
same,"Toxicity Data, Average, Mean","cells (nuclei count); Average of Exp 1-3, n 9, 10 uM",120.18%
same,"Toxicity Data, Average, Mean","cells (nuclei count); Average of Exp 1-3, n 9, 25 uM",103.23%
same,"Toxicity Data, Average, Mean","cells (nuclei count); Average of Exp 1-3, n 9, 50 uM",86.33%
same,"Relative cell count to DMSO controls, Average (for correlation analysis)",cells (nuclei count),107.89
same,"Infection Data, Average, Mean","SARS2; Average of Exp 1-3, n 9, 1 uM",101.69%
same,"Infection Data, Average, Mean","SARS2; Average of Exp 1-3, n 9, 5 uM",91.50%
same,"Infection Data, Average, Mean","SARS2; Average of Exp 1-3, n 9, 10 uM",93.59%
same,"Infection Data, Average, Mean","SARS2; Average of Exp 1-3, n 9, 25 uM",67.45%
same,"Infection Data, Average, Mean","SARS2; Average of Exp 1-3, n 9, 50 uM",20.11%
same,Percentage Infection Relative to Appropriate DMSO Control with Avg Background Subtraction,"SARS2; Exp 1 (SMW475), 1 uM",107.33% and 128.47% and 95.32%
same,Percentage Infection Relative to Appropriate DMSO Control with Avg Background Subtraction,"SARS2; Exp 1 (SMW475), 5 uM",113.52% and 118.94% and 106.69%
same,Percentage Infection Relative to Appropriate DMSO Control with Avg Background Subtraction,"SARS2; Exp 1 (SMW475), 10 uM",137.00% and 134.73% and 122.43%
same,Percentage Infection Relative to Appropriate DMSO Control with Avg Background Subtraction,"SARS2; Exp 1 (SMW475), 25 uM",63.59% and 56.84% and 58.04%
same,Percentage Infection Relative to Appropriate DMSO Control with Avg Background Subtraction,"SARS2; Exp 1 (SMW475), 50 uM",15.03% and 16.97% and 13.28%
same,Percentage Infection Relative to Appropriate DMSO Control with Avg Background Subtraction,"SARS2; Exp 2 (SMW477), 1 uM",100.41% and 105.41% and 110.54%
same,Percentage Infection Relative to Appropriate DMSO Control with Avg Background Subtraction,"SARS2; Exp 2 (SMW477), 5 uM",92.70% and 91.91% and 94.77%
same,Percentage Infection Relative to Appropriate DMSO Control with Avg Background Subtraction,"SARS2; Exp 2 (SMW477), 10 uM",76.80% and 77.09% and 89.00%
same,Percentage Infection Relative to Appropriate DMSO Control with Avg Background Subtraction,"SARS2; Exp 2 (SMW477), 25 uM",62.89% and 48.77% and 73.05%
same,Percentage Infection Relative to Appropriate DMSO Control with Avg Background Subtraction,"SARS2; Exp 2 (SMW477), 50 uM",26.32% and 19.89% and 21.80%
same,Percentage Infection Relative to Appropriate DMSO Control with Avg Background Subtraction,"SARS2; Exp 3 (SMW478), 1 uM",87.75% and 89.34% and 90.68%
same,Percentage Infection Relative to Appropriate DMSO Control with Avg Background Subtraction,"SARS2; Exp 3 (SMW478), 5 uM",79.11% and 61.06% and 64.83%
same,Percentage Infection Relative to Appropriate DMSO Control with Avg Background Subtraction,"SARS2; Exp 3 (SMW478), 10 uM",89.71% and 51.99% and 63.55%
same,Percentage Infection Relative to Appropriate DMSO Control with Avg Background Subtraction,"SARS2; Exp 3 (SMW478), 25 uM",80.23% and 76.86% and 86.74%
same,Percentage Infection Relative to Appropriate DMSO Control with Avg Background Subtraction,"SARS2; Exp 3 (SMW478), 50 uM",18.61% and 22.87% and 26.23%
same,Percentage Inhibition Average 1 μM,SARS2,−1.69%
same,Screening data (Relative infection to DMSO controls) Average 1 μM,SARS2,101.69
same,Percentage Inhibition Average 5 μM,SARS2,8.50%
same,Screening data (Relative infection to DMSO controls) Average 5 μM,SARS2,91.50
same,Percentage Inhibition Average 10 μM,SARS2,6.41%
same,Screening data (Relative infection to DMSO controls) Average 10 μM,SARS2,93.59
same,Percentage Inhibition Average 25 μM,SARS2,32.55%
same,Screening data (Relative infection to DMSO controls) Average 25 μM,SARS2,67.45
same,Percentage Inhibition Average 50 μM,SARS2,79.89%
same,Screening data (Relative infection to DMSO controls) Average 50 μM,SARS2,20.11
same,Average (relative infection to DMSO over the 5 tested concentrations),SARS2,74.87
